Laboratory results published in patent publication EP0845217A1, “Inhibiting undesirable taste in oral compositions” (priority 1996, dated 1998).

Test system: mud puppy taste cells
Assay: Response of isolated taste cells to bitter-tasting compounds, intracellular calcium fluorescence
Type: cell-based
Method: Taste cells are isolated from the mud puppy, a type of salamander (S. C. Kinnamon, et al, Chemical Senses 13: 355 - 366, 1988). Briefly, a fresh mud puppy tongue is incubated with collagenase, the non-gustatory epithelium is peeled off the surface, and individual taste buds are gently drawn into a micropipette using a dissecting microscope at 50X magnification. The taste buds are plated into small vessels, that are coated with Cell-Tak, containing culture media. The taste cells can remain viable up to 18 days and maintain normal functions (C. Ruiz, et al, Experimental Cell Biology of Taste and Olfaction, Current Techniques and Protocols, A. I. Spielman and J. G. Brand, eds., CRC Press, 1995, pp. 79 - 84). The taste cells are labeled intracellularly with a marker compound that fluoresces in a dose-dependent fashion to calcium ion concentration. Since an increase in the intracellular calcium ion concentration is one of the last steps in converging biochemical signal transduction pathways for bitterness, the fluorescent marker correlates with taste cell response to bitterness (D. Restrepo, et al, Experimental Cell Biology of Taste and Olfaction, Current Techniques and Protocols, A. I. Spielman and J. G. Brand, eds., CRC Press, 1995, pp. 387 - 398). Labeled taste cells are observed microscopically using image analysis software. Using a micropipette, taste cells are exposed to bitter-tasting compounds by adding the compounds in media near the taste cell. Cells that respond to the bitter-tasting compound show an increase in fluorescence intensity. Bitter inhibitors are tested by adding them to the test solution with the bitter-tasting compound. The response of individual taste cells to bitter-tasting compounds and to bitter-tasting compounds plus inhibitor are monitored by measuring the fluorescent intensity using a microscope. Images are stored electronically and image analysis software is used to analyze the data (D. Restrepo, et al, Biophysical Journal 64: 1961 - 1966, 1993).

Question: What does the source list for vanillylmonophosphate [VMP]?
Answer: effect on taste cell response to denatonium benzoate (inhibitor mixed with denatonium benzoate): decreases the taste cell response; effect on taste cell response to dextromethorphan (inhibitor mixed with dextromethorphan): decreases the taste cell response
